Assay [1] addresses human TRPV1 receptor (hTRPV1) (Homo sapiens (Human), UniProt Q8NER1). Description: Capsaicin activation assay (FLIPR intracellular Ca2+). In kind it is cell-based. In outline:
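Recombinant HEK293 cells stably expressing hTRPV1, Calcium-4 dye loaded 90–120 min at room temperature, were preincubated with compound (12-point, one-third-log) for 3 min before capsaicin challenge. Peak FLIPR fluorescence minus baseline was normalised to capsaicin control response; IC50 from four-parameter logistic fit.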

The next assay concerns rats. Briefly: Sodium iodoacetate-induced knee joint osteoarthritic pain model (hind limb grip force). Type of assay: in vivo. The note with it: rat, 30 mg/kg single acute oral dose, assessed 1 hour following administration, 20 days after iodoacetate. As for the experimental part:
Unilateral knee joint osteoarthritis was induced in the rats by a single intra-articular (i.a.) injection of sodium iodoacetate (3 mg in 0.05 mL sterile isotonic saline) into the right knee joint cavity under light isoflurane anesthesia using a 26G needle. […] Pain behavioral assessment of hind limb grip force was conducted by recording the maximum compressive force exerted on the hind limb strain gauge setup, in a commercially available grip force measurement system (Columbus Instruments, Columbus, Ohio). The grip force data was converted to a maximum hindlimb cumulative compressive force (CFmax) (gram force)/kg body weight for each animal. The analgesic effects of test compounds were determined 20 days following the i.a. injection of sodium iodoacetate. The vehicle control group for each compound being tested was assigned 0% whereas the age matched naïve group was assigned as being 100% (normal). The % effect for each dose group was then expressed as % return to normalcy compared to the naïve group. Test compounds were administered orally in 10% ethanol/20% Tween 80/70% polyethylene glycol-400 vehicle at a volume of 2 mL/kg. The assessment of the analgesic effects of test compounds was made 1 hour following oral administration. […]

Where two headings read alike, the source gives them in different places.

Sequence of human TRPV1 receptor (hTRPV1) (Q8NER1 whole entry): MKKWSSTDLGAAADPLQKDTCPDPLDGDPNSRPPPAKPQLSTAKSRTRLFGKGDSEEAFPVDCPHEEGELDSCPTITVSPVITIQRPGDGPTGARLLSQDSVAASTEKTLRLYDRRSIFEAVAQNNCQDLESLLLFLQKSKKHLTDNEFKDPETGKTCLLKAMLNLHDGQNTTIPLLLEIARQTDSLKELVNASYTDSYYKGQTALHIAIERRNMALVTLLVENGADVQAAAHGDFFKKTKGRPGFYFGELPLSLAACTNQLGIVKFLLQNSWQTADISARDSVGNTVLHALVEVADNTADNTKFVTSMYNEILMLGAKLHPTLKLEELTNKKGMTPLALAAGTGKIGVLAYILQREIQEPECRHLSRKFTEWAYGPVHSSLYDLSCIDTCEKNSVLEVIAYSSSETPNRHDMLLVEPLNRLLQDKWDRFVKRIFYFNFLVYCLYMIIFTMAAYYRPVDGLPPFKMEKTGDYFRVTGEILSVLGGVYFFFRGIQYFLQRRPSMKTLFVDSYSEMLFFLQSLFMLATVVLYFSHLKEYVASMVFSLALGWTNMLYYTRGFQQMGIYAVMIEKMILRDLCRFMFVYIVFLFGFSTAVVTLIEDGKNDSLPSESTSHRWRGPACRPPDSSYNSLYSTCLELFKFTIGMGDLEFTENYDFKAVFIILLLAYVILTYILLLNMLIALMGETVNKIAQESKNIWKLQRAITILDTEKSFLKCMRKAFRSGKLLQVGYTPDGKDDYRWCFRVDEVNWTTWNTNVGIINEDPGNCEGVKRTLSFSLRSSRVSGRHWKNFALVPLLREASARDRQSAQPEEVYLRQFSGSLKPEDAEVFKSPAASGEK

Turning to `CS(=O)(=O)Nc1ccc(CNC(=O)N[C@@H]2CC(CF)(CF)Oc3cc(C(F)(F)F)ccc32)cc1F` [Example 10, N-{4-[({[(4R)-2,2-bis(fluoromethyl)-7-(trifluoromethyl)-3,4-dihydro-2H-chromen-4-yl]carbamoyl}amino)methyl]-2-fluorophenyl}methanesulfonamide], the IC50 in assay [1] (Table 2, capsaicin-induced intracellular Ca2+ increase, read-out: human TRPV1 capsaicin IC50) turned out to be 54 nM; in assay [1] (inhibition of capsaicin-induced intracellular Ca2+ increase, compounds added 3 minutes prior to capsaicin, read-out: hTRPV1 cap. IC50), 54 nM. For the same compound, the “% effect (% return to normalcy) in iodoacetate-induced osteoarthritic pain model” value with rats was 62%.

For the origin of these results see patent publication US8796328B2, “TRPV1 antagonists” (AbbVie Inc., priority 2012, dated 2014).
